Data from PubChem BioAssay (NCI).
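48-hour exposure; five concentrations; linearly interpolated endpoints. TGI: total growth inhibition.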

What was measured:
Experiment in all cases: NCI anticancer screen, dose series, 48 h
[1] = test system: 786-0 renal
[2] = test system: A549 NSCLC
[3] = test system: ACHN renal
[4] = test system: BT-549 breast
[5] = test system: CAKI-1 renal
[6] = test system: CCRF-CEM leukemia
[7] = test system: COLO 205 colon
[8] = test system: DU-145 prostate
[9] = test system: EKVX NSCLC
[10] = test system: HCC-2998 colon
[11] = test system: HCT-116 colon
[12] = test system: HCT-15 colon
[13] = test system: HL-60(TB) leukemia
[14] = test system: HOP-62 NSCLC
[15] = test system: HOP-92 NSCLC
[16] = test system: HS 578T breast
[17] = test system: HT29 colon
[18] = test system: IGROV1 ovarian
[19] = test system: K-562 leukemia
[20] = test system: KM12 colon
[21] = test system: LOX IMVI melanoma
[22] = test system: M14 melanoma
[23] = test system: MALME-3M melanoma
[24] = test system: MCF7 breast
[25] = test system: MDA-MB-231 breast
[26] = test system: MDA-MB-435
[27] = test system: MDA-N
[28] = test system: MOLT-4 leukemia
[29] = test system: NCI-H226 lung
[30] = test system: NCI-H23 lung
[31] = test system: NCI-H522 lung
[32] = test system: NCI/ADR-RES ovarian
[33] = test system: OVCAR-3 ovarian
[34] = test system: OVCAR-4 ovarian
[35] = test system: OVCAR-5 ovarian
[36] = test system: OVCAR-8 ovarian
[37] = test system: PC-3 prostate
[38] = test system: RPMI-8226 leukemia
[39] = test system: SF-268 CNS
[40] = test system: SF-295 CNS
[41] = test system: SF-539 CNS
[42] = test system: SK-MEL-2 melanoma
[43] = test system: SK-MEL-5 melanoma
[44] = test system: SK-OV-3 ovarian
[45] = test system: SN12C renal
[46] = test system: SNB-19 CNS
[47] = test system: SNB-75 CNS
[48] = test system: SR leukemia
[49] = test system: SW-620 colon
[50] = test system: T-47D breast
[51] = test system: TK-10 renal
[52] = test system: U251 CNS
[53] = test system: UACC-257 melanoma
[54] = test system: UACC-62 melanoma
[55] = test system: UO-31 renal
[56] = test system: A498 renal
[57] = test system: NCI-H460 lung
[58] = test system: RXF 393 renal
[59] = test system: SK-MEL-28 melanoma

SMILES: COC1CC(OC2C(C)OC(OC3C(C)OC(OC4C(O)CC(O[C@H]5CC[C@@]6(C)C(=CC[C@]7(O)[C@@H]6C[C@@H](OC(=O)/C=C/c6ccccc6)[C@@]6(C)[C@]7(O)CC[C@@]6(O)C(C)=O)C5)OC4C)CC3OC)CC2OC)OC(C)C1O (some centres not stated)
- TGI [1]: > 6.25 µM
- TGI [2]: > 6.25 µM
- TGI [3]: > 6.25 µM
- TGI [4]: > 6.25 µM
- TGI [5]: > 6.25 µM
- TGI [6]: > 6.25 µM
- TGI [7]: > 6.25 µM
- TGI [8]: > 6.25 µM
- TGI [9]: > 6.25 µM
- TGI [10]: > 6.25 µM
- TGI [11]: > 6.25 µM
- TGI [12]: > 6.25 µM
- TGI [13]: > 6.25 µM
- TGI [14]: > 6.25 µM
- TGI [15]: > 6.25 µM
- TGI [16]: > 6.25 µM
- TGI [17]: > 6.25 µM
- TGI [18]: > 6.25 µM
- TGI [19]: > 6.25 µM
- TGI [20]: > 6.25 µM
- TGI [21]: > 6.25 µM
- TGI [22]: > 6.25 µM
- TGI [23]: > 6.25 µM
- TGI [24]: > 6.25 µM
- TGI [25]: > 6.25 µM
- TGI [26]: > 6.25 µM
- TGI [27]: > 6.25 µM
- TGI [28]: > 6.25 µM
- TGI [29]: > 6.25 µM
- TGI [30]: > 6.25 µM
- TGI [31]: > 6.25 µM
- TGI [32]: > 6.25 µM
- TGI [33]: > 6.25 µM
- TGI [34]: > 6.25 µM
- TGI [35]: > 6.25 µM
- TGI [36]: > 6.25 µM
- TGI [37]: > 6.25 µM
- TGI [38]: > 6.25 µM
- TGI [39]: > 6.25 µM
- TGI [40]: > 6.25 µM
- TGI [41]: > 6.25 µM
- TGI [42]: > 6.25 µM
- TGI [43]: > 6.25 µM
- TGI [44]: > 6.25 µM
- TGI [45]: > 6.25 µM
- TGI [46]: > 6.25 µM
- TGI [47]: > 6.25 µM
- TGI [48]: > 6.25 µM
- TGI [49]: > 6.25 µM
- TGI [50]: > 6.25 µM
- TGI [51]: > 6.25 µM
- TGI [52]: > 6.25 µM
- TGI [53]: > 6.25 µM
- TGI [54]: > 6.25 µM
- TGI [55]: > 6.25 µM

SMILES: COC(=O)c1ccccc1CC1Cc2ccc3c(c2C1)CCC3 (configuration not stated)
- TGI [1]: > 100 µM
- TGI [56]: > 100 µM
- TGI [2]: > 100 µM
- TGI [3]: > 100 µM
- TGI [4]: > 100 µM
- TGI [5]: > 100 µM
- TGI [6]: 36.9 µM
- TGI [7]: 34.5 µM
- TGI [8]: > 100 µM
- TGI [9]: 48.8 µM
- TGI [10]: 45.7 µM
- TGI [11]: > 100 µM
- TGI [12]: 55.3 µM
- TGI [13]: 32.1 µM
- TGI [14]: > 100 µM
- TGI [15]: 52.5 µM
- TGI [16]: > 100 µM
- TGI [17]: 96.8 µM
- TGI [18]: > 100 µM
- TGI [19]: > 100 µM
- TGI [20]: 92.1 µM
- TGI [21]: 31.1 µM
- TGI [22]: > 100 µM
- TGI [23]: 38.6 µM
- TGI [24]: 30.1 µM
- TGI [25]: 50.5 µM
- TGI [26]: 57.9 µM
- TGI [27]: > 100 µM
- TGI [28]: 53.9 µM
- TGI [29]: > 100 µM
- TGI [30]: > 100 µM
- TGI [57]: > 100 µM
- TGI [31]: 46.9 µM
- TGI [32]: 45.7 µM
- TGI [33]: > 100 µM
- TGI [34]: > 100 µM
- TGI [35]: 91.3 µM
- TGI [36]: > 100 µM
- TGI [37]: > 100 µM
- TGI [38]: 47.7 µM
- TGI [58]: 52.9 µM
- TGI [39]: > 100 µM
- TGI [40]: > 100 µM
- TGI [41]: > 100 µM
- TGI [42]: 30.7 µM
- TGI [59]: > 100 µM
- TGI [43]: 43.8 µM
- TGI [44]: > 100 µM
- TGI [45]: > 100 µM
- TGI [46]: > 100 µM
- TGI [47]: > 100 µM
- TGI [48]: 27.1 µM
- TGI [49]: > 100 µM
- TGI [50]: > 100 µM
- TGI [51]: > 100 µM
- TGI [52]: 85.1 µM
- TGI [53]: 28.6 µM
- TGI [54]: > 100 µM
- TGI [55]: > 100 µM

SMILES: C=CCN1C(=O)/C(=C/c2ccc(OC)cc2)NC1=S
- TGI [1]: > 100 µM
- TGI [56]: > 100 µM
- TGI [2]: > 100 µM
- TGI [3]: > 100 µM
- TGI [4]: > 100 µM
- TGI [5]: > 100 µM
- TGI [6]: 13.1 µM
- TGI [7]: > 100 µM
- TGI [8]: > 100 µM
- TGI [9]: 58.7 µM
- TGI [10]: > 100 µM
- TGI [11]: > 100 µM
- TGI [12]: > 100 µM
- TGI [13]: 3.81 µM
- TGI [14]: > 100 µM
- TGI [15]: > 100 µM
- TGI [16]: > 100 µM
- TGI [17]: > 100 µM
- TGI [18]: > 100 µM
- TGI [19]: > 100 µM
- TGI [20]: > 100 µM
- TGI [21]: > 100 µM
- TGI [22]: > 100 µM
- TGI [24]: > 100 µM
- TGI [25]: > 100 µM
- TGI [26]: > 100 µM
- TGI [27]: > 100 µM
- TGI [28]: 25.6 µM
- TGI [29]: > 100 µM
- TGI [30]: > 100 µM
- TGI [57]: > 100 µM
- TGI [31]: > 100 µM
- TGI [32]: > 100 µM
- TGI [33]: > 100 µM
- TGI [34]: > 100 µM
- TGI [35]: > 100 µM
- TGI [36]: > 100 µM
- TGI [37]: > 100 µM
- TGI [38]: > 100 µM
- TGI [58]: > 100 µM
- TGI [39]: > 100 µM
- TGI [40]: > 100 µM
- TGI [41]: > 100 µM
- TGI [42]: > 100 µM
- TGI [59]: > 100 µM
- TGI [43]: > 100 µM
- TGI [44]: > 100 µM
- TGI [45]: > 100 µM
- TGI [46]: > 100 µM
- TGI [47]: > 100 µM
- TGI [48]: > 100 µM
- TGI [49]: > 100 µM
- TGI [50]: > 100 µM
- TGI [51]: > 100 µM
- TGI [52]: > 100 µM
- TGI [53]: 78.3 µM
- TGI [54]: > 100 µM
- TGI [55]: > 100 µM
